Source: patent publication US20230072683A1, “PYRIDO-PYRIMIDIN DERIVATIVES AND PHARMACEUTICAL COMPOSITION, FOR USE IN PREVENTING OR TREATING PI3 KINASE RELATED DISEASES, COMPRISING SAME AS ACTIVE INGREDIENT” (BORYUNG PHARMACEUTICAL CO., LTD, priority 2019, published 2023)

Legend:
[1] = target: PI3K-δ (PI3K(p1108/p857) (h)) (Homo sapiens, UniProt O00329); assay: Evaluation of inhibitory activity against PI3K-δ (HTRF kinase assay); type: biochemical; details: for inhibition at 0.01 µM: compound concentration 0.01 μM, read-out: EXP_VALUE(% Inhibition) PI3K-δ 0.01 μM; for inhibition at 0.1 µM: compound concentration 0.1 μM, read-out: EXP_VALUE(% Inhibition) PI3K-δ 0.1 μM
Chain of PI3K-δ (PI3K(p1108/p857) (h)) (O00329 whole entry, the tested form may be a part): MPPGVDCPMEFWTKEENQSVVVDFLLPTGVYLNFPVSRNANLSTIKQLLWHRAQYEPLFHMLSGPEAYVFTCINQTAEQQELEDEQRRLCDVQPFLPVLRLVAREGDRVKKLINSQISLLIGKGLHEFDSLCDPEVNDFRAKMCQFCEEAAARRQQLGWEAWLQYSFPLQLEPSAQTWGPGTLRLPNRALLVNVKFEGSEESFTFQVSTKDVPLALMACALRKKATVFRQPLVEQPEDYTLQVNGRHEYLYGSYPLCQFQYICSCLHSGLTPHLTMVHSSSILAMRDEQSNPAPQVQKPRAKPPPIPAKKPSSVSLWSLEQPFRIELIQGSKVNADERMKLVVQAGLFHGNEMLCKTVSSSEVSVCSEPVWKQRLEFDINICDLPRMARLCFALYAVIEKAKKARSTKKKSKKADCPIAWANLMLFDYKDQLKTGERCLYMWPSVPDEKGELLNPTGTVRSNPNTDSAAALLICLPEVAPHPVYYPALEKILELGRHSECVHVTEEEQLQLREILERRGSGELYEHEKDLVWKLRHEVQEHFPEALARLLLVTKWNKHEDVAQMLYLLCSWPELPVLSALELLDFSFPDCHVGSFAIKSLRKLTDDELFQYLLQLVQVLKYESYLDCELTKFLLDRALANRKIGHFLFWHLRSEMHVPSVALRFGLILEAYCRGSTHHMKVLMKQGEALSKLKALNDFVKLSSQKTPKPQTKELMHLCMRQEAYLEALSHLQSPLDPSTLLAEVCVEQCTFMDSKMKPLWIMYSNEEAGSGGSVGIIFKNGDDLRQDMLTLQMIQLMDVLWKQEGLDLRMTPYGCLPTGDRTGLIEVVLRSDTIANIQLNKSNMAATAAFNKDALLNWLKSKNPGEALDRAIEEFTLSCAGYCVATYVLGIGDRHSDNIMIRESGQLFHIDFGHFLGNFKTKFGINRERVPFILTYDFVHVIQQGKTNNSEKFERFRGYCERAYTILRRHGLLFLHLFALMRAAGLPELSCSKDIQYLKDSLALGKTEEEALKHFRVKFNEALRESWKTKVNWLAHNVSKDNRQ
Chain of PI3K-δ (PI3K(p1108/p857) (h)) (P27986 whole entry partner, the tested form may be a part): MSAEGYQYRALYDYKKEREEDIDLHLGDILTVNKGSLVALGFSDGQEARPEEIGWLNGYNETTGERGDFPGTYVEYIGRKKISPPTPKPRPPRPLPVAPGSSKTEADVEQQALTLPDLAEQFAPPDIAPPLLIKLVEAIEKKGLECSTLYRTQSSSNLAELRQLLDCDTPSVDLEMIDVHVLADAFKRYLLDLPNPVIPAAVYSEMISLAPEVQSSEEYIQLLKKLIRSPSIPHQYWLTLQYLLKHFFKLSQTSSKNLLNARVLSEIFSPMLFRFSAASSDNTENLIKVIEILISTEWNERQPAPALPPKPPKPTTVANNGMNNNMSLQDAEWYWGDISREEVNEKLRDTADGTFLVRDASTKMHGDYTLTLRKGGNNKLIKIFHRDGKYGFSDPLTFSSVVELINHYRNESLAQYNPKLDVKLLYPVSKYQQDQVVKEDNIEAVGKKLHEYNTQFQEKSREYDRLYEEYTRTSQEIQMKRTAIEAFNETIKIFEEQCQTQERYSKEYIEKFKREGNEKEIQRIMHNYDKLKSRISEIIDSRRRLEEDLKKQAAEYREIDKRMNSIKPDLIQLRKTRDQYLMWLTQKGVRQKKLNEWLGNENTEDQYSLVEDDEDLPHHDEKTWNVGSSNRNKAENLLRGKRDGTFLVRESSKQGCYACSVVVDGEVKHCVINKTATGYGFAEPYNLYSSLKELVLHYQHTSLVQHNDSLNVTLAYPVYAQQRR
How it was run: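 HTRF read-out (665/620 nm ratio ×10000) used Eu-labelled anti-GST, GST-tagged GRP1 PH domain and streptavidin-allophycocyanin after EDTA/PIP3 stop.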

DNA-PK(h) = DNA-PK(h) (Homo sapiens, UniProt P78527); assay: Evaluation of inhibitory activity against DNA-PK (HTRF kinase assay, GST-cMyc-p53 substrate); type: biochemical; details: for inhibition at 0.01 µM: compound concentration 0.01 μM, read-out: EXP_VALUE(% Inhibition) DNA-PK(h) 0.01 μM; for inhibition at 0.1 µM: compound concentration 0.1 μM, read-out: EXP_VALUE(% Inhibition) DNA-PK(h) 0.1 μM
How it was run: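 Human DNA-PK with 50 μM GST-cMyc-p53 substrate; reaction started with Mg/ATP, run 30 min at room temperature, stopped with EDTA. Phospho-Ser15 p53 detected by HTRF (Eu anti-phospho-Ser15, d2 anti-GST), signal = 10000×(Em 665/Em 620).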

Row | Structure (SMILES) | inhibition at 0.01 µM [1] | inhibition at 0.1 µM [1] | inhibition at 0.01 µM (DNA-PK(h)) | inhibition at 0.1 µM (DNA-PK(h))
1 | C[C@H](Nc1ncnc2[nH]ccc(=O)c12)c1c(Cl)c2cccc(C#Cc3ccc(-c4ccccc4)cc3)c2c(=O)n1-c1ccccc1 [Example 310, (S)-4-((1-(8-([1,1′-biphenyl]-4-ylethynyl)-4-chloro-1-oxo-2-phenyl-1,2-dihydroisoquinolin-3-yl)ethyl)amino)pyrido[2,3-d]pyrimidin-5(8H)-one] | 31.5% | 20.4% | -2.5% | 3.2%
2 | C[C@H](Nc1ncnc2[nH]ccc(=O)c12)c1c(Cl)c2cccc(C#Cc3ccnn3C)c2c(=O)n1-c1ccccc1 [Example 311, (S)-4-((1-(4-chloro-8-((1-methyl-1H-pyrazol-5-yl)ethynyl)-1-oxo-2-phenyl-1,2-dihydroisoquinolin-3-yl)ethyl)amino)pyrido[2,3-d]pyrimidin-5(8H)-one] | 18.2% | 39.5% | 47.1% | 82.2%
3 | C[C@H](Nc1ncnc2[nH]ccc(=O)c12)c1c(Cl)c2cccc(C#Cc3nccs3)c2c(=O)n1-c1ccccc1 [Example 312, (S)-4-((1-(4-chloro-1-oxo-2-phenyl-8-(thiazol-2-ylethynyl)-1,2-dihydroisoquinolin-3-yl)ethyl)amino)pyrido[2,3-d]pyrimidin-5(8H)-one] | 46.8% | 77.1% | 39.8% | 84.3%
4 | C[C@H](Nc1ncnc2[nH]ccc(=O)c12)c1c(Cl)c2cccc(C#Cc3cncs3)c2c(=O)n1-c1ccccc1 [Example 313, (S)-4-((1-(4-chloro-1-oxo-2-phenyl-8-(thiazol-5-ylethynyl)-1,2-dihydroisoquinolin-3-yl)ethyl)amino)pyrido[2,3-d]pyrimidin-5(8H)-one] | 20.2% | 55% | 47.2% | 84.6%
5 | C[C@H](Nc1ncnc2[nH]ccc(=O)c12)c1c(Cl)c2cccc(C#Cc3ccc(N(C)C)cc3)c2c(=O)n1-c1ccccc1 [Example 314, (S)-4-((1-(4-chloro-8-((4-(dimethylamino)phenyl)ethynyl)-1-oxo-2-phenyl-1,2-dihydroisoquinolin-3-yl)ethyl)amino)-5-oxo-5,8-dihydropyrido[2,3-d]pyrimidin-5(8H)-one] | 76% | 96% | 25% | 75%
6 | C[C@H](Nc1ncnc2[nH]ccc(=O)c12)c1c(Cl)c2cccc(C#Cc3ccc(C(F)(F)F)cc3)c2c(=O)n1-c1ccccc1 [Example 315, (S)-4-((1-(4-chloro-1-oxo-2-phenyl-8-((4-(trifluoromethyl)phenyl)ethynyl)-1,2-dihydroisoquinolin-3-yl)ethyl)amino)-5-oxo-5,8-dihydropyrido[2,3-d]pyrimidin-5(8H)-one, 2,2,2-trifluoroacetate] | 39% | 89% | 18% | 62%
7 | C[C@H](Nc1ncnc2[nH]ccc(=O)c12)c1c(Cl)c2cccc(C#Cc3cncnc3)c2c(=O)n1-c1ccccc1 [Example 316, (S)-4-((1-(4-chloro-1-oxo-2-phenyl-8-(pyrimidin-5-ylethynyl)-1,2-dihydroisoquinolin-3-yl)ethyl)amino)pyrido[2,3-d]pyrimidin-5(8H)-one] | 43% | 91% | 88% | 99%
8 | C[C@H](Nc1ncnc2[nH]ccc(=O)c12)c1c(Cl)c2cccc(-c3nc4ccccc4o3)c2c(=O)n1-c1ccccc1 [Example 317, (S)-4-((1-(8-(benzo[d]oxazol-2-yl)-4-chloro-1-oxo-2-phenyl-1,2-dihydroisoquinolin-3-yl)ethyl)amino)pyrido[2,3-d]pyrimidin-5(8H)-one] | 45% | 86% | 64% | 96%
9 | C[C@H](Nc1ncnc2[nH]ccc(=O)c12)c1cc2cccc(-c3nc4ccccc4o3)c2c(=O)n1-c1ccccc1 [Example 318, (S)-4-((1-(8-(benzo[d]oxazol-2-yl)-1-oxo-2-phenyl-1,2-dihydroisoquinolin-3-yl)ethyl)amino)pyrido[2,3-d]pyrimidin-5(8H)-one] | 23% | 65% | 19% | 35%
10 | C[C@H](Nc1ncnc2[nH]ccc(=O)c12)c1c(Cl)c2cccc(N(C)Cc3ccccc3)c2c(=O)n1-c1ccccc1 [Example 319, (S)-4-((1-(8-(benzyl(methyl)amino)-4-chloro-1-oxo-2-phenyl-1,2-dihydroisoquinolin-3-yl)ethyl)amino)pyrido[2,3-d]pyrimidin-5(8H)-one] | 18% | 62% | 7% | 25%
11 | C[C@H](Nc1ncnc2[nH]ccc(=O)c12)c1c(Cl)c2cccc(-n3cccn3)c2c(=O)n1-c1ccccc1 [Example 320, (S)-4-((1-(4-chloro-1-oxo-2-phenyl-8-(1H-pyrazol-1-yl)-1,2-dihydroisoquinolin-3-yl)ethyl)amino)pyrido[2,3-d]pyrimidin-5(8H)-one] | 35.9% | 83.3% | 12.3% | 57.3%
12 | C[C@H](Nc1ncnc2[nH]ccc(=O)c12)c1c(Cl)c2cccc(NCc3ccccc3)c2c(=O)n1-c1ccccc1 [Example 321, (S)-4-((1-(8-(benzylamino)-4-chloro-1-oxo-2-phenyl-1,2-dihydroisoquinolin-3-yl)ethyl)amino)pyrido[2,3-d]pyrimidin-5(8H)-one] | 22% | 68% | 10% | 34%
13 | C[C@H](Nc1ncnc2[nH]ccc(=O)c12)c1c(Cl)c2cccc(N(C)C3CCCCC3)c2c(=O)n1-c1ccccc1 [Example 322, (S)-4-((1-(4-chloro-8-(cyclohexyl(methyl)amino)-1-oxo-2-phenyl-1,2-dihydroisoquinolin-3-yl)ethyl)amino)pyrido[2,3-d]pyrimidin-5(8H)-one] | 11% | 30% | -11% | 21%
14 | C[C@H](Nc1ncnc2[nH]ccc(=O)c12)c1c(Cl)c2cccc(NC3CC3)c2c(=O)n1-c1ccccc1 [Example 323, (S)-4-((1-(4-chloro-8-(cyclopropylamino)-1-oxo-2-phenyl-1,2-dihydroisoquinolin-3-yl)ethyl)amino)pyrido[2,3-d]pyrimidin-5(8H)-one] | 22% | 65% | 8% | 28%
15 | C[C@H](Nc1ncnc2[nH]ccc(=O)c12)c1c(Cl)c2cccc(NCc3cccnc3)c2c(=O)n1-c1ccccc1 [Example 324, (S)-4-((1-(4-chloro-1-oxo-2-phenyl-8-((pyridin-3-ylmethyl)amino)-1,2-dihydroisoquinolin-3-yl)ethyl)amino)pyrido[2,3-d]pyrimidin-5(8H)-one] | 19% | 58% | 30% | 74%
